For one data set, the system named is lungs of mice. As to conditions: mouse, in vivo.
In another data set the test system is C57BL/6J mice. Conditions: mouse, in vivo.

Experimental for C57BL/6J mice: Either hydroxyapatite microspheres (HAMs, Fluidinova) or talc was injected via the intrapleural (i.pl.) route into C57BL/6J mice. For the mice injected with HAMs, 4 mg/g mouse of HAM/300 μL saline/mice was used. For the mice injected with talc, 2 mg/g mouse of talc/300 μL saline/mice was used. The mice were euthanized at day 0, day 7, day 14 or day 28 and post-mortem assessments were performed. Effectiveness of pleurodesis was assessed by introducing air into the pleural space. Each lung was punctured percutaneously with a 20 G needle for 12 times for left and right lung (total 24 times) (transthoracic needle puncture). Then, a CT scan was taken to measure the volume of pneumothorax air space in the thoracic cavity (see FIGS. 1A and 1B).
In addition, paraffin-embedded lung sections were stained with H&E and Mason's trichrome reagent for microscopic evaluation of pleural fibrosis and pleural thickness. Clearance of particles was assessed by microCT (see FIGS. 2A and 2B). Macroscopic pleural adhesions were scored (see FIGS. 3A, 3B and 3C); pleural lavage cells were collected to assess OLMNGC (osteoclast-like multinucleated giant cells) formation, including cytology, fibrosis- and osteoclast-related gene and protein expression of tartrate-resistant acid phosphatase (TRAP), (CTSK), and calcitonin receptor (Calcr) antibody by rtPCR and immunohistochemistry

With hydroxyapatite [HAMs], in the data set with lungs of mice, the lung inflammation entry is “transient monocyte rich inflammation” and the pulmonary fibrosis entry is reported as “no residual fibrosis”. The “clearance of particles from the lungs” value in the data set on lungs of mice (inhaled or intranasal) was “cleared within a month”. In the data set on C57BL/6J mice, the “amount of residual particles in the thoracic cavity” value is listed as “decreased over time” and the clearance of particles result is “almost completely cleared”.

The values are drawn from US20240009231A1, “Method for Pleurodesis and Delivery of Drugs to the Lung and Pleural Space” (University of Cincinnati, priority 2020, published 2024).
